From patent US20100267561A1, “HERBICIDAL PYRIDAZINONE DERIVATIVES” (priority 2007, published 2010)

Experiments:
Type in all cases: in vivo
canola (Brassica rapa) = test: Test C pre-/postemergence plant response
Summary of the method: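 Formulated in a surfactant-containing non-phytotoxic solvent, compounds were tested under controlled growth conditions as preemergence and postemergence treatments. Ratings from 0 (no effect) to 100 (complete control) were assigned visually relative to controls 15 to 25 days later.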

[1] = system: guineagrass (Panicum maximum); test: Test E pre-/postemergence plant response; conditions: scale 0 to 100
Summary of the method: (§1)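 Plant response was judged by eye relative to controls, 0 meaning no effect and 100 complete control, after 14 to 21 days under greenhouse conditions. Compound was formulated in a non-phytotoxic solvent mixture with surfactant.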

[2] = system: goosegrass (Eleusine indica); test: Test E pre-/postemergence plant response; conditions: scale 0 to 100
Summary of the method: as §1

[3] = system: barnyardgrass (Echinochloa crus-galli); test: Test E pre-/postemergence plant response; conditions: scale 0 to 100
Summary of the method: as §1

[4] = system: southern (S.) sandbur (Cenchrus echinatus); test: Test E pre-/postemergence plant response; conditions: scale 0 to 100
Summary of the method: as §1

[5] = system: dallisgrass (Paspalum dilatatum); test: Test E pre-/postemergence plant response; conditions: scale 0 to 100
Summary of the method: as §1

[6] = system: black mustard (Brassica nigra); test: Test E pre-/postemergence plant response; conditions: scale 0 to 100
Summary of the method: as §1

[7] = system: common purslane (Portulaca oleracea); test: Test E pre-/postemergence plant response; conditions: scale 0 to 100
Summary of the method: as §1

[8] = Postemergence, 8 g ai/ha, scale 0 to 100, 0 no effect, 100 complete control
[9] = Postemergence, 16 g ai/ha, scale 0 to 100, 0 no effect, 100 complete control
[10] = Postemergence, 31 g ai/ha, scale 0 to 100, 0 no effect, 100 complete control
[11] = Postemergence, 62 g ai/ha, scale 0 to 100, 0 no effect, 100 complete control
[12] = Preemergence, 8 g ai/ha, scale 0 to 100 (0 no effect, 100 complete control)
[13] = Preemergence, 16 g ai/ha, scale 0 to 100 (0 no effect, 100 complete control)
[14] = Preemergence, 31 g ai/ha, scale 0 to 100 (0 no effect, 100 complete control)
[15] = Preemergence, 62 g ai/ha, scale 0 to 100, 0 no effect, 100 complete control

CCc1cc(-c2ccc(Cl)c(Cl)c2)nn1-c1c(O)cnn(C)c1=O [Compound 20]
Plant response rating, Canola (canola (Brassica rapa); [8]): 0
Plant response rating, Canola (canola (Brassica rapa); [9]): 0
Plant response rating, Canola (canola (Brassica rapa); [10]): 0
Plant response rating, Canola (canola (Brassica rapa); [11]): 0

CCc1cc(-c2ccc(F)cc2)nn1-c1c(O)cnn(C)c1=O [Compound 25]
Plant response rating, Canola (canola (Brassica rapa); [8]): 0
Plant response rating, Canola (canola (Brassica rapa); [9]): 0
Plant response rating, Canola (canola (Brassica rapa); [10]): 0
Plant response rating, Canola (canola (Brassica rapa); [11]): 0
Plant response rating, Canola (canola (Brassica rapa); [12]): 0
Plant response rating, Canola (canola (Brassica rapa); [13]): 0
Plant response rating, Canola (canola (Brassica rapa); [14]): 0
Plant response rating, Canola (canola (Brassica rapa); [15]): 0

CCc1c(C)c(-c2ccc(Cl)cc2)nn1-c1c(O)cnn(C)c1=O [Compound 26, 4-[3-(4-chlorophenyl)-5-ethyl-4-methyl-1H-pyrazol-1-yl]-5-hydroxy-2-methyl-3(2H)-pyridazinone]
Plant response rating, Canola (canola (Brassica rapa); [8]): 0
Plant response rating, Canola (canola (Brassica rapa); [9]): 0
Plant response rating, Canola (canola (Brassica rapa); [10]): 0
Plant response rating, Canola (canola (Brassica rapa); [11]): 0
Plant response rating, Canola (canola (Brassica rapa); [14]): 0
Plant response rating, Canola (canola (Brassica rapa); [15]): 0

Cn1ncc(O)c(-c2nn(-c3ccc(Cl)cc3)cc2Cl)c1=O [Compound 28]
Plant response rating, Canola (canola (Brassica rapa); [12]): 0
Plant response rating, Canola (canola (Brassica rapa); [13]): 0
Plant response rating, Canola (canola (Brassica rapa); [14]): 0
Plant response rating, Canola (canola (Brassica rapa); [15]): 0

Cc1cn(-c2ccc(Cl)cc2)nc1-c1c(O)cnn(C)c1=O [Compound 30, 4-[1-(4-chlorophenyl)-4-methyl-1H-pyrazol-3-yl]-5-hydroxy-2-methyl-3(2H)-pyridazinone]
Plant response rating, Canola (canola (Brassica rapa); [12]): 0
Plant response rating, Canola (canola (Brassica rapa); [13]): 0
Plant response rating, Canola (canola (Brassica rapa); [14]): 0
Plant response rating, Canola (canola (Brassica rapa); [15]): 0

Cc1cc(-c2ccc(Cl)cc2)nn1-c1c(OS(C)(=O)=O)cnn(C)c1=O [Compound 36]
Plant response rating, Guineagrass ([1]; 16 g ai/ha, Preemergence): 100
Plant response rating, Guineagrass ([1]; 31 g ai/ha, Preemergence): 100
Plant response rating, Guineagrass ([1]; 62 g ai/ha, Preemergence): 100
Plant response rating, Guineagrass ([1]; Postemergence, 8 g ai/ha): 35
Plant response rating, Guineagrass ([1]; Postemergence, 16 g ai/ha): 75
Plant response rating, Guineagrass ([1]; Postemergence, 31 g ai/ha): 90
Plant response rating, Guineagrass ([1]; Postemergence, 62 g ai/ha): 90
Plant response rating, Goosegrass ([2]; 8 g ai/ha, Preemergence): 30
Plant response rating, Goosegrass ([2]; 16 g ai/ha, Preemergence): 98
Plant response rating, Goosegrass ([2]; 31 g ai/ha, Preemergence): 98
Plant response rating, Goosegrass ([2]; 62 g ai/ha, Preemergence): 100
Plant response rating, Goosegrass ([2]; Postemergence, 8 g ai/ha): 0
Plant response rating, Goosegrass ([2]; Postemergence, 16 g ai/ha): 35
Plant response rating, Goosegrass ([2]; Postemergence, 31 g ai/ha): 40
Plant response rating, Goosegrass ([2]; Postemergence, 62 g ai/ha): 75
Plant response rating, Barnyardgrass ([3]; 8 g ai/ha, Preemergence): 80
Plant response rating, Barnyardgrass ([3]; 16 g ai/ha, Preemergence): 95
Plant response rating, Barnyardgrass ([3]; 31 g ai/ha, Preemergence): 95
Plant response rating, Barnyardgrass ([3]; 62 g ai/ha, Preemergence): 100
Plant response rating, Barnyardgrass ([3]; Postemergence, 8 g ai/ha): 50
Plant response rating, Barnyardgrass ([3]; Postemergence, 16 g ai/ha): 50
Plant response rating, Barnyardgrass ([3]; Postemergence, 31 g ai/ha): 95
Plant response rating, Barnyardgrass ([3]; Postemergence, 62 g ai/ha): 100
Plant response rating, Sandbur, S. ([4]; 16 g ai/ha, Preemergence): 90
Plant response rating, Sandbur, S. ([4]; 31 g ai/ha, Preemergence): 100
Plant response rating, Sandbur, S. ([4]; 62 g ai/ha, Preemergence): 100
Plant response rating, Sandbur, S. ([4]; Postemergence, 8 g ai/ha): 40
Plant response rating, Sandbur, S. ([4]; Postemergence, 16 g ai/ha): 65
Plant response rating, Sandbur, S. ([4]; Postemergence, 31 g ai/ha): 80
Plant response rating, Sandbur, S. ([4]; Postemergence, 62 g ai/ha): 85
Plant response rating, Dallisgrass ([5]; 8 g ai/ha, Preemergence): 35
Plant response rating, Dallisgrass ([5]; 16 g ai/ha, Preemergence): 60
Plant response rating, Dallisgrass ([5]; 31 g ai/ha, Preemergence): 75
Plant response rating, Dallisgrass ([5]; 62 g ai/ha, Preemergence): 98
Plant response rating, Dallisgrass ([5]; Postemergence, 8 g ai/ha): 0
Plant response rating, Dallisgrass ([5]; Postemergence, 16 g ai/ha): 20
Plant response rating, Dallisgrass ([5]; Postemergence, 31 g ai/ha): 30
Plant response rating, Dallisgrass ([5]; Postemergence, 62 g ai/ha): 50
Plant response rating, Mustard, Black ([6]; 8 g ai/ha, Preemergence): 0
Plant response rating, Mustard, Black ([6]; 16 g ai/ha, Preemergence): 0
Plant response rating, Mustard, Black ([6]; 31 g ai/ha, Preemergence): 0
Plant response rating, Mustard, Black ([6]; 62 g ai/ha, Preemergence): 0
Plant response rating, Mustard, Black ([6]; Postemergence, 8 g ai/ha): 0
Plant response rating, Mustard, Black ([6]; Postemergence, 16 g ai/ha): 0
Plant response rating, Mustard, Black ([6]; Postemergence, 31 g ai/ha): 0
Plant response rating, Mustard, Black ([6]; Postemergence, 62 g ai/ha): 0
Plant response rating, Purslane ([7]; 16 g ai/ha, Preemergence): 0
Plant response rating, Purslane ([7]; 31 g ai/ha, Preemergence): 0
Plant response rating, Purslane ([7]; 62 g ai/ha, Preemergence): 0
Plant response rating, Purslane ([7]; Postemergence, 8 g ai/ha): 0
Plant response rating, Purslane ([7]; Postemergence, 16 g ai/ha): 0
Plant response rating, Purslane ([7]; Postemergence, 31 g ai/ha): 0
Plant response rating, Purslane ([7]; Postemergence, 62 g ai/ha): 0
